Assay [1] is described as follows: inhibition of PEG-3 promoter-driven reporter – cell-based, HeLa, luciferase, CREF/GAPDH counter-screen panel, dose response (AID 624167). The note with it: CREF/GAPDH counter-screens; GAPDH; mean of runs.
A further assay relates to GAPDH. The description is as above. The note with it: CREF/GAPDH counter-screens.
Assay [2] has as its system PEG-3. The assay is described as above. The note with it: HeLa PEG-Prom luciferase reporter, overnight, CREF/GAPDH counter-screens. On the technique in general: Reporter assays use an easily measured gene product as a stand-in for the process of interest.
In the next assay the test system is Rat fibroblasts (CREF). Described as above. The note with it: CREF/GAPDH counter-screens. (The purpose of a counterscreen is to sort out artefacts and off-target activity.)
The target in assay [3] is PEG-3 (UniProt Q6IN02). The assay is described as above. The note with it: HeLa PEG-Prom luciferase reporter, overnight, CREF/GAPDH counter-screens, mean of runs.
Where [4] appears, read: run 1, dose range 1, individual replicate IC50 per panel.
Setting [5] is: run 2, dose range 1, individual replicate IC50 per panel.

Calls of active or inactive are those of the source.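 How the source made its calls: active means mean IC50 for reducing PEG3 promoter reporter signal at or below a set limit, with IC50 above the limit in both counter screens; inactive means the rest, including counter screen hits.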

Sequence of PEG-3 (UniProt Q6IN02) (Q6IN02 whole entry, looked up): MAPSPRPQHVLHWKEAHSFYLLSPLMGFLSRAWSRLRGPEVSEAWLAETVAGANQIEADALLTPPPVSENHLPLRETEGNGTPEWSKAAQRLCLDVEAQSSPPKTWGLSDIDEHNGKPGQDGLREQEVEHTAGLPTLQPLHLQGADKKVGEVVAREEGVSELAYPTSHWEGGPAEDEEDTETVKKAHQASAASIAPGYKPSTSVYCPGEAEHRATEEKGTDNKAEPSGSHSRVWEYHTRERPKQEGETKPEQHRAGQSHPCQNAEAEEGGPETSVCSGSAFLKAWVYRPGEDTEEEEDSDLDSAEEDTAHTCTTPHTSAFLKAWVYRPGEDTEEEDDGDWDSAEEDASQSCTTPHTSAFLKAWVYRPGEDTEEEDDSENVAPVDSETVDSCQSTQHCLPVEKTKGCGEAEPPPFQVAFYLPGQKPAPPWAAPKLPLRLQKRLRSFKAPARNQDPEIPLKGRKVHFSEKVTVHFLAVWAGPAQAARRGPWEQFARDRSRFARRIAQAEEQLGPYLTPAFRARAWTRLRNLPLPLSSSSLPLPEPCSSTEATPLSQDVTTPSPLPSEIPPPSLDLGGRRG

As usually defined, the IC50 is the midpoint of a concentration-inhibition curve. For `C=CCc1cccc(/C=N/NC(=O)C(C)Nc2cccc(C)c2)c1O` (centres undefined), the IC50 was > 100 µM (inactive) in assay [1]; above 100 µM with GAPDH (setting [4]); above 100 µM in the assay on GAPDH (setting [5]); 12.2 µM in the assay on PEG-3 [2] (setting [4]); 1.89 µM in the assay with PEG-3 [2] (setting [5]); > 100 µM (inactive) in the assay on Rat fibroblasts (CREF) (mean of runs). Moreover, the IC50 with Rat fibroblasts (CREF) (setting [4]) was above 100 µM; in the assay with Rat fibroblasts (CREF) (setting [5]), above 100 µM; on PEG-3 [3], 7.04 µM.

For the molecule `Cc1ccc(C(C[N+](=O)[O-])Sc2ccc(N)cc2)cc1` (centres undefined), the IC50 is 18.6 µM in assay [1]; 21.1 µM with GAPDH (setting [4]); 16.1 µM with GAPDH (setting [5]); 9.59 µM in the assay on PEG-3 [2] (setting [4]); 6.49 µM in the assay on PEG-3 [2] (setting [5]); 62.8 µM (inactive) with Rat fibroblasts (CREF) (mean of runs). Besides, the results for the IC50 in the assay with Rat fibroblasts (CREF) (setting [4]), with Rat fibroblasts (CREF) (setting [5]) and on PEG-3 [3] were 25.6 µM, above 100 µM and 8.04 µM, respectively.

In the case of `O=C(c1ccco1)N1CCN(C(c2ccccc2Cl)c2nnnn2Cc2cccs2)CC1` (centres undefined), the IC50 result (in assay [1]; on PEG-3 [3]) was “inactive” each time. Also, the IC50 in the assay with GAPDH (setting [4]) is 14.5 µM; in the assay on GAPDH (setting [5]), 58.7 µM; with PEG-3 [2] (setting [4]), 3.28 µM; with PEG-3 [2] (setting [5]), above 100 µM; with Rat fibroblasts (CREF) (mean of runs) it was > 100 µM (inactive); in the assay with Rat fibroblasts (CREF) (setting [4]) it was above 100 µM. Also, in the assay on Rat fibroblasts (CREF) (setting [5]), the IC50 was above 100 µM.

With `Cc1ccc(/C=C2\SC(=S)N(CCCC(=O)NNC(=O)c3ccccc3O)C2=O)cc1`, the IC50 in assay [1] was 5.04 µM; with GAPDH (setting [4]), 2.65 µM; in the assay with GAPDH (setting [5]), 7.43 µM; in the assay with PEG-3 [2] (setting [4]), 1.71 µM; in the assay on PEG-3 [2] (setting [5]) it was below 0.2 µM; with Rat fibroblasts (CREF) (mean of runs), > 100 µM (inactive). In addition, the values for the IC50 in the assay on Rat fibroblasts (CREF) (setting [4]), in the assay with Rat fibroblasts (CREF) (setting [5]) and at PEG-3 [3] were above 100 µM, above 100 µM and 0.95 µM, respectively.

As to `CCCC(=O)NC(c1ccccc1)c1ccc2cccnc2c1O` (centres undefined), the IC50 is > 100 µM (inactive) in assay [1]; above 100 µM in the assay on GAPDH (setting [4]); above 100 µM with GAPDH (setting [5]); 3.04 µM in the assay with PEG-3 [2] (setting [4]); 1.91 µM in the assay with PEG-3 [2] (setting [5]); 13.1 µM in the assay with Rat fibroblasts (CREF) (mean of runs). Besides, the IC50 with Rat fibroblasts (CREF) (setting [4]) is 0.587 µM; in the assay on Rat fibroblasts (CREF) (setting [5]), 25.7 µM; on PEG-3 [3], 2.47 µM.

Take `O=C1C=CC(=O)N1c1ccc(-c2nc3ccccc3o2)cc1`: the IC50 entry in assay [1] is “inactive”. In addition, the IC50 in the assay with GAPDH (setting [4]) was 41.6 µM; in the assay with GAPDH (setting [5]) it was 35.3 µM; in the assay with PEG-3 [2] (setting [4]), 11.3 µM; in the assay with PEG-3 [2] (setting [5]) it was 8.02 µM; with Rat fibroblasts (CREF) (mean of runs), 12.8 µM; in the assay on Rat fibroblasts (CREF) (setting [4]) it was 5.55 µM. Moreover, the IC50 with Rat fibroblasts (CREF) (setting [5]) is 20 µM; on PEG-3 [3], 9.67 µM.

These data come from PubChem BioAssay AID624167 (Sanford-Burnham Center for Chemical Genomics, 2012).
